{"source": "PubChem BioAssay AID1963962", "about": "(Molecular Pharmacology Branch, DTP, NCI, 2024);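 note: spheroids exposed to agents for 7 days before read-out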;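 for viability, T/C: luminescence used as surrogate of cell viability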", "tested_on": "967376-340-R-J2-PDC multicell spheroid viability", "experiment": "Anticancer human tumor 967376-340-R-J2-PDC patient-derived colon adenocarcinoma cell line growth inhibition [PI3K]", "conditions": "for IC50: curve of first compound; for viability, T/C: stronger effect = lower value", "in_short": "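High-throughput combination screen: PI3K inhibitors crossed with targeted small molecules on complex spheroids of tumor cells, HUVEC and MSCs at 37 degrees C, 5% CO2. Top concentration was at or near clinical Cmax (otherwise 10 microM), with half-log decrements.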", "key": {"[1]": {"conditions": "second compound 0.0316 µM, first compound 0.0316 µM"}, "[2]": {"conditions": "second compound 0.0316 µM, first compound 0.1 µM"}, "[3]": {"conditions": "second compound 0.0316 µM, first compound 0.316 µM"}, "[4]": {"conditions": "second compound 0.0316 µM, first compound 1 µM"}, "[5]": {"conditions": "second compound 0.0316 µM, first compound 3.16 µM"}, "[6]": {"conditions": "second compound 0.0316 µM, first compound 10 µM"}, "[7]": {"conditions": "second compound 0.1 µM, first compound 0.0316 µM"}, "[8]": {"conditions": "second compound 0.1 µM, first compound 0.1 µM"}, "[9]": {"conditions": "second compound 0.1 µM, first compound 0.316 µM"}, "[10]": {"conditions": "second compound 0.1 µM, first compound 1 µM"}, "[11]": {"conditions": "second compound 0.1 µM, first compound 3.16 µM"}, "[12]": {"conditions": "second compound 0.1 µM, first compound 10 µM"}, "[13]": {"conditions": "second compound 0.316 µM, first compound 0.0316 µM"}, "[14]": {"conditions": "second compound 0.316 µM, first compound 0.1 µM"}, "[15]": {"conditions": "second compound 0.316 µM, first compound 0.316 µM"}, "[16]": {"conditions": "second compound 0.316 µM, first compound 1 µM"}, "[17]": {"conditions": "second compound 0.316 µM, first compound 3.16 µM"}, "[18]": {"conditions": "second compound 0.316 µM, first compound 10 µM"}, "[19]": {"conditions": "second compound 1 µM, first compound 0.0316 µM"}, "[20]": {"conditions": "second compound 1 µM, first compound 0.1 µM"}, "[21]": {"conditions": "second compound 1 µM, first compound 0.316 µM"}, "[22]": {"conditions": "second compound 1 µM, first compound 1 µM"}, "[23]": {"conditions": "second compound 1 µM, first compound 3.16 µM"}, "[24]": {"conditions": "second compound 1 µM, first compound 10 µM"}, "[25]": {"conditions": "second compound 3.16 µM, first compound 0.0316 µM"}, "[26]": {"conditions": "second compound 3.16 µM, first compound 0.1 µM"}, "[27]": {"conditions": "second compound 3.16 µM, first compound 0.316 µM"}, "[28]": {"conditions": "second compound 3.16 µM, first compound 1 µM"}, "[29]": {"conditions": "second compound 3.16 µM, first compound 3.16 µM"}, "[30]": {"conditions": "second compound 3.16 µM, first compound 10 µM"}, "[31]": {"conditions": "second compound 10 µM, first compound 0.0316 µM"}, "[32]": {"conditions": "second compound 10 µM, first compound 0.1 µM"}, "[33]": {"conditions": "second compound 10 µM, first compound 0.316 µM"}, "[34]": {"conditions": "second compound 10 µM, first compound 1 µM"}, "[35]": {"conditions": "second compound 10 µM, first compound 3.16 µM"}, "[36]": {"conditions": "second compound 10 µM, first compound 10 µM"}}}
{"smiles": "C#Cc1c(F)ccc2cc(O)cc(-c3ncc4c(N5CC6CCC(C5)N6)nc(OCC56CCCN5CC(F)C6)nc4c3F)c12", "note": "(centres undefined) + CC(Nc1ncnc2nc[nH]c12)c1cc2cccc(Cl)c2c(=O)n1-c1ccccc1", "values": [{"measurement": "IC50", "setting": "second compound 0.0316 µM", "value": "> 10", "unit": "µM"}, {"measurement": "IC50", "setting": "second compound 0.1 µM", "value": "> 10", "unit": "µM"}, {"measurement": "IC50", "setting": "second compound 0.316 µM", "value": "> 10", "unit": "µM"}, {"measurement": "IC50", "setting": "second compound 1 µM", "value": "> 10", "unit": "µM"}, {"measurement": "IC50", "setting": "second compound 3.16 µM", "value": "> 10", "unit": "µM"}, {"measurement": "IC50", "setting": "second compound 10 µM", "value": "> 10", "unit": "µM"}, {"measurement": "viability, T/C", "setting": "[1]", "value": 103, "unit": "%"}, {"measurement": "viability, T/C", "setting": "[2]", "value": 113, "unit": "%"}, {"measurement": "viability, T/C", "setting": "[3]", "value": 94.2, "unit": "%"}, {"measurement": "viability, T/C", "setting": "[4]", "value": 85.8, "unit": "%"}, {"measurement": "viability, T/C", "setting": "[5]", "value": 85.5, "unit": "%"}, {"measurement": "viability, T/C", "setting": "[6]", "value": 53.8, "unit": "%"}, {"measurement": "viability, T/C", "setting": "[7]", "value": 99.8, "unit": "%"}, {"measurement": "viability, T/C", "setting": "[8]", "value": 110, "unit": "%"}, {"measurement": "viability, T/C", "setting": "[9]", "value": 80.5, "unit": "%"}, {"measurement": "viability, T/C", "setting": "[10]", "value": 97.5, "unit": "%"}, {"measurement": "viability, T/C", "setting": "[11]", "value": 77, "unit": "%"}, {"measurement": "viability, T/C", "setting": "[12]", "value": 88.9, "unit": "%"}, {"measurement": "viability, T/C", "setting": "[13]", "value": 104, "unit": "%"}, {"measurement": "viability, T/C", "setting": "[14]", "value": 97.2, "unit": "%"}, {"measurement": "viability, T/C", "setting": "[15]", "value": 99.7, "unit": "%"}, {"measurement": "viability, T/C", "setting": "[16]", "value": 90.6, "unit": "%"}, {"measurement": "viability, T/C", "setting": "[17]", "value": 99.5, "unit": "%"}, {"measurement": "viability, T/C", "setting": "[18]", "value": 78.8, "unit": "%"}, {"measurement": "viability, T/C", "setting": "[19]", "value": 96.5, "unit": "%"}, {"measurement": "viability, T/C", "setting": "[20]", "value": 110, "unit": "%"}, {"measurement": "viability, T/C", "setting": "[21]", "value": 109, "unit": "%"}, {"measurement": "viability, T/C", "setting": "[22]", "value": 93, "unit": "%"}, {"measurement": "viability, T/C", "setting": "[23]", "value": 72.8, "unit": "%"}, {"measurement": "viability, T/C", "setting": "[24]", "value": 70.8, "unit": "%"}, {"measurement": "viability, T/C", "setting": "[25]", "value": 106, "unit": "%"}, {"measurement": "viability, T/C", "setting": "[26]", "value": 92.4, "unit": "%"}, {"measurement": "viability, T/C", "setting": "[27]", "value": 94.6, "unit": "%"}, {"measurement": "viability, T/C", "setting": "[28]", "value": 71.2, "unit": "%"}, {"measurement": "viability, T/C", "setting": "[29]", "value": 78.3, "unit": "%"}, {"measurement": "viability, T/C", "setting": "[30]", "value": 71.8, "unit": "%"}, {"measurement": "viability, T/C", "setting": "[31]", "value": 84.1, "unit": "%"}, {"measurement": "viability, T/C", "setting": "[32]", "value": 76.8, "unit": "%"}, {"measurement": "viability, T/C", "setting": "[33]", "value": 78.8, "unit": "%"}, {"measurement": "viability, T/C", "setting": "[34]", "value": 61.6, "unit": "%"}, {"measurement": "viability, T/C", "setting": "[35]", "value": 59.5, "unit": "%"}, {"measurement": "viability, T/C", "setting": "[36]", "value": 61.5, "unit": "%"}]}
{"smiles": "CC1(C)CCC(Nc2ncc(C(F)(F)F)c(-c3c[nH]c4c(P(C)(C)=O)c(C#N)ccc34)n2)CN1", "note": "(centres undefined) + CC(Nc1ncnc2nc[nH]c12)c1cc2cccc(Cl)c2c(=O)n1-c1ccccc1", "values": [{"measurement": "IC50", "setting": "second compound 0.0316 µM", "value": "> 10", "unit": "µM"}, {"measurement": "IC50", "setting": "second compound 0.1 µM", "value": "> 10", "unit": "µM"}, {"measurement": "IC50", "setting": "second compound 0.316 µM", "value": "> 10", "unit": "µM"}, {"measurement": "IC50", "setting": "second compound 1 µM", "value": "> 10", "unit": "µM"}, {"measurement": "IC50", "setting": "second compound 3.16 µM", "value": "> 10", "unit": "µM"}, {"measurement": "IC50", "setting": "second compound 10 µM", "value": 4.79, "unit": "µM"}, {"measurement": "viability, T/C", "setting": "[1]", "value": 103, "unit": "%"}, {"measurement": "viability, T/C", "setting": "[2]", "value": 90.2, "unit": "%"}, {"measurement": "viability, T/C", "setting": "[3]", "value": 80.3, "unit": "%"}, {"measurement": "viability, T/C", "setting": "[4]", "value": 69.2, "unit": "%"}, {"measurement": "viability, T/C", "setting": "[5]", "value": 68.3, "unit": "%"}, {"measurement": "viability, T/C", "setting": "[6]", "value": 55.4, "unit": "%"}, {"measurement": "viability, T/C", "setting": "[7]", "value": 108, "unit": "%"}, {"measurement": "viability, T/C", "setting": "[8]", "value": 92.8, "unit": "%"}, {"measurement": "viability, T/C", "setting": "[9]", "value": 79.6, "unit": "%"}, {"measurement": "viability, T/C", "setting": "[10]", "value": 75.2, "unit": "%"}, {"measurement": "viability, T/C", "setting": "[11]", "value": 76.6, "unit": "%"}, {"measurement": "viability, T/C", "setting": "[12]", "value": 55.7, "unit": "%"}, {"measurement": "viability, T/C", "setting": "[13]", "value": 83.5, "unit": "%"}, {"measurement": "viability, T/C", "setting": "[14]", "value": 91.6, "unit": "%"}, {"measurement": "viability, T/C", "setting": "[15]", "value": 93, "unit": "%"}, {"measurement": "viability, T/C", "setting": "[16]", "value": 60.9, "unit": "%"}, {"measurement": "viability, T/C", "setting": "[17]", "value": 71.4, "unit": "%"}, {"measurement": "viability, T/C", "setting": "[18]", "value": 64.3, "unit": "%"}, {"measurement": "viability, T/C", "setting": "[19]", "value": 90.6, "unit": "%"}, {"measurement": "viability, T/C", "setting": "[20]", "value": 93.5, "unit": "%"}, {"measurement": "viability, T/C", "setting": "[21]", "value": 64.1, "unit": "%"}, {"measurement": "viability, T/C", "setting": "[22]", "value": 78.1, "unit": "%"}, {"measurement": "viability, T/C", "setting": "[23]", "value": 68.2, "unit": "%"}, {"measurement": "viability, T/C", "setting": "[24]", "value": 63.9, "unit": "%"}, {"measurement": "viability, T/C", "setting": "[25]", "value": 84.6, "unit": "%"}, {"measurement": "viability, T/C", "setting": "[26]", "value": 73.6, "unit": "%"}, {"measurement": "viability, T/C", "setting": "[27]", "value": 85, "unit": "%"}, {"measurement": "viability, T/C", "setting": "[28]", "value": 73.4, "unit": "%"}, {"measurement": "viability, T/C", "setting": "[29]", "value": 73, "unit": "%"}, {"measurement": "viability, T/C", "setting": "[30]", "value": 62.3, "unit": "%"}, {"measurement": "viability, T/C", "setting": "[31]", "value": 72.3, "unit": "%"}, {"measurement": "viability, T/C", "setting": "[32]", "value": 73.8, "unit": "%"}, {"measurement": "viability, T/C", "setting": "[33]", "value": 70.2, "unit": "%"}, {"measurement": "viability, T/C", "setting": "[34]", "value": 63.5, "unit": "%"}, {"measurement": "viability, T/C", "setting": "[35]", "value": 56.8, "unit": "%"}, {"measurement": "viability, T/C", "setting": "[36]", "value": 39.4, "unit": "%"}]}
